Reference: patent US20250346866A1, “CELL AGGREGATE DISSOCIATING AGENT” (AJINOMOTO CO., INC., priority 2023, published 2025)

Legend:
Assay type in all cases: cell-based
[1] = tested on: human iPS cells (1383D2 strain) cell aggregates; assay: Dissociation of human iPS cell aggregates by stirring with dissociation agent (micrographs, Vi-CELL viable cell density); conditions: culture medium with 10 μM Y-27632; WK11 stirred 17 min, EDTA 2.5 mM stirred 14 min; FIG. 2, FIG. 3
Protocol: The iPS cells maintenance cultured in (2) were seeded at a concentration of 1.5×10^5 cells/mL in a multi-well plate with StemFit (registered trademark) AK03N (Ajinomoto Co., Inc.) containing 10 μM Y-27632 added thereto, and cultured with stirring at a rotation speed of 70 rpm using an orbital shaker MaxQ™ 2000 CO2 Plus (Thermo Fisher Scientific) placed in a CO2 incubator at 37° C. One and three days after seeding, 50 vol % each of the medium was exchanged with AK02N, and the culture was continued until four days later to obtain cell aggregates.
To a culture medium containing the cell aggregates prepared in (3) were added Y-27632 (final concentration 10 μM) and WK11 pre-treated in (1), and the mixture was stirred for 17 min using an orbital shaker. Thereafter, the cell aggregates were sufficiently brought to a single-cell state by pipetting, and the viable cell density was measured using a live/dead cell autoanalyzer Vi-CELL XR (BECKMAN COULTER). […]
To a culture medium containing the cell aggregates prepared in (3) were added Y-27632 (final concentration 10 μM) and EDTA (final concentration 2.5 mM), and the mixture was stirred for 14 min using an orbital shaker. […] The viable cell density of the obtained cell suspension was measured using Vi-CELL XR.
The viable cell density in the culture medium was calculated from the Vi-CELL measured values in Example 1 (4), (5), and (6). […]

[2] = tested on: human iPS cells (1383D2 strain); assay: Suspension culture after passage: proliferation, viable cell density and aggregate formation; conditions: for proliferation in 4 days after passage (viable cell density): seeded 1.5×10^5 cells/mL, 4 days suspension culture, FIG. 6
Protocol: A new multi-well plate containing AK02N containing 10 μM Y-27632 was prepared, and the cells obtained in (4), (5), and (6) were respectively seeded at a density of 1.5×10^5 cells/mL. The cells were cultured in a CO2 incubator while stirring with an orbital shaker. One and three days after seeding, 50 vol % each of the medium was exchanged with AK02N, and the suspension culture was continued until four days later.
To accurately measure the number of viable cells, after four days of culture, under the same conditions, the following operation, including centrifugation, was performed. The entire volume of each culture medium was collected in a 15-mL conical tube, and the supernatant was removed by centrifugation (200 G, 5 min, 25° C.). Accutase™ (Nacalai Tesque Inc., 12679-54) (0.5 mL) was added and the mixture was heated at 37° C. for 15 min, after which the cell aggregates were sufficiently brought to a single-cell state by pipetting. The cells attached to the wall of the conical tube were sufficiently washed with AK02N, and the supernatant was removed by centrifugation (200 G, 5 min, 25° C.). The cells were resuspended in AK02N containing 10 μM Y-27632, and the viable cell density was measured using Vi-CELL XR.
The viable cell density in the culture medium was calculated from the Vi-CELL measured values in Example 1 (4), (5), and (6). A great difference in the viable cell density was not observed depending on the passage method. The viable cell density in the culture medium was calculated from the Vi-CELL measured values in Example 1 (7). The cells passaged using WK11 proliferated 3.4-fold in 4 days, whereas the cells passaged using EDTA without centrifugation removal proliferated 0.03-fold. Even when the centrifugation step was performed, the value was as low as 0.4-fold.

[3] = tested on: human iPS cells (1383D2 strain), CD30 expression; assay: Undifferentiated marker (CD30) positive rate by flow cytometry; conditions: FIG. 7
Protocol: The undifferentiated rate was evaluated for cells 4 days after suspension culture seeding, according to the following procedure.
1×10^5 cells were quantitatively collected, centrifuged (400 g, 5 min), and the supernatant was removed. 20 μL of PE Mouse Anti-Human CD30 (BD Pharmingen™) or PE Mouse IgG1, κ Isotype Control (BD Pharmingen™) diluted 5-fold with buffer was added and the cells were left standing for 20 min at 4° C. in the dark. After washing several times with buffer, the cells were analyzed using an Attune NXT Flow Cytometer (Thermo Fisher Scientific). […] However, measurement was not performed under conditions without a step of removing EDTA by centrifugation, because cells were not obtained.

`O=C(O)CN(CCN(CC(=O)O)CC(=O)O)CC(=O)O` [EDTA, ethylenediaminetetraacetic acid] was tested, and the “state of cell aggregates after stirring (micrograph)” value [1] was “fragmented and the intercellular binding was weakened”, the “proliferation in 4 days after passage (viable cell density)” value ([2]; centrifugation step performed to remove the agent) was 0.4 fold and the “proliferation in 4 days after passage (viable cell density)” value ([2]; no centrifugation removal of the dissociation agent) was 0.03 fold. For the same molecule, the “proliferation of passaged cells (micrograph)” value ([2]; suspension cultured 4 days after passage, FIG. 4) was “proliferated hardly”, the “aggregate formation of passaged cells (micrograph)” value ([2]; suspension cultured 4 days after passage, without a step of removing EDTA by centrifugation, FIG. 4) was “no aggregates were formed” and the “undifferentiated marker (CD30) positive rate” value ([3]; Passage 1, 4 days after suspension culture seeding) was “maintained high values”. For the same molecule, the “undifferentiated marker (CD30) positive rate” value ([3]; Passage 2, 4 days after suspension culture seeding, EDTA only with centrifugation removal) was “maintained even after culture”.
